Measurements taken from BindingDB's records for doi:10.1021/acs.jmedchem.0c00774 (Istituto Italiano Di Tecnologia, 2020).

Biological target: Prostaglandin G/H synthase 1 (Homo sapiens, UniProt P23219)
Assay: Inhibition of human COX1

Sequence of Prostaglandin G/H synthase 1 (P23219 whole entry): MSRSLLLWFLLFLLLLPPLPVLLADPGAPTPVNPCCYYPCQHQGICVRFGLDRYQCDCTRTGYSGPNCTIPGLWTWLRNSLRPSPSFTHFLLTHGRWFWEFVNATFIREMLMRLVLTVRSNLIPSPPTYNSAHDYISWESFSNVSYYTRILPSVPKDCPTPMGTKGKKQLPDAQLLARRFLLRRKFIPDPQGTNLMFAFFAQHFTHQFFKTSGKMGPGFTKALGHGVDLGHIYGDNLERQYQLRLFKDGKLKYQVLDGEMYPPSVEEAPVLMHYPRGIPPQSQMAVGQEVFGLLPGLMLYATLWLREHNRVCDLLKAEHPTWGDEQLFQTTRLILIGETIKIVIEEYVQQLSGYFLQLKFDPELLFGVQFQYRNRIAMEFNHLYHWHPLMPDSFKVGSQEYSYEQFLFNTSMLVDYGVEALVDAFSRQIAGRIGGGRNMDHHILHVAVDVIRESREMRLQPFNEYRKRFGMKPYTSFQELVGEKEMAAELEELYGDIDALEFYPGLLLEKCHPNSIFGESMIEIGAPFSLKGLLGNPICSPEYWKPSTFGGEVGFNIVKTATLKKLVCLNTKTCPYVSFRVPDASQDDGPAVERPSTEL

IC50: 4 µM
Structure (SMILES): CN(C)c1ccc(Nc2nc(-c3ccncc3)nc3c2CC(N)CC3)cc1 (stereo unspecified)
